Laboratory results: patent US10112918B2, “15-oxospiramilactone derivatives, preparation method and uses thereof” (Kunming Institute of Botany, The Chinese Academy of Sciences, priority 2013, dated 2018)
Like-named read-outs stand apart in the source and are kept apart here.

Columns and labels:
Format in all cases: cell-based
[1] = system: MCF-7 (human breast cancer cells); experiment: MTT inhibition of tumor cell growth, MCF-7; conditions: Homo sapiens, MCF7, 48 h
Method: (§1) 1. Inoculating cells: the culture medium DMEM or RMPI1640 containing 10% fetal bovine serum was used to prepare a single cell suspension, and the cell suspension was inoculated to a 96-well plate at 5000-10000 cells per well (100 μl for each well); Adherent cells were inoculated and cultured for 12 h in advance. HL-60 (human promyelocytic leukemia cells), SMMC-7721 (human hepatoma cells), A-549 (Human lung adenocarcinoma cells), MCF-7 (human breast cancer cells), SW-480 (human colon cancer cells) were purchased from the Cell Bank of the Chinese Academy of Sciences, Shanghai.
(§2) 2. The solution of the compound to be tested (40 μM for primary screening; 5 concentrations were set for gradient re-screening for the compounds which achieve about 50% inhibition of tumor cell growth at 40 μM) was added, the final volume of each well was 200 μl, and triplicate wells were set for each test.
(§3) 3. Coloration: After culturing at 37° C. for 48 h, MTT solution (20 μl) was added to each well. After incubation for another 4 h, the culture was stopped. The supernatant in each well was pipetted and discarded, and 200 μl SDS solution (10%) was added to each well. Incubation was performed overnight (at 37° C.), to completely dissolve the crystal.
(§4) 4. Colorimetric assay: ELISA Reader (Bio-Rad 680) was used to obtain the light absorption for each well at a wavelength of 595 nm, the results were recorded. A cell growth curve was plotted with the concentration as abscissa and the cell survival percentage as ordinate. The two-point method (Reed and Muench method) was used to calculate the IC50 of the compound.

[2] = system: SMMC-7721 (human hepatoma cells); experiment: MTT inhibition of tumor cell growth, SMMC-7721; conditions: Homo sapiens, SMMC-7721, 48 h
Method: as §1, §2, §3, §4

[3] = system: A-549 (Human lung adenocarcinoma cells); experiment: MTT inhibition of tumor cell growth, A-549; conditions: Homo sapiens, A549, 48 h
Method: as §1, §2, §3, §4

[4] = system: SW-480 (human colon cancer cells); experiment: MTT inhibition of tumor cell growth, SW-480; conditions: Homo sapiens, SW480, 48 h
Method: as §1, §2, §3, §4

[5] = system: Wnt signaling pathway (Top-Flash reporter gene); experiment: Top-Flash Wnt reporter gene assay in HEK293T cells with Wnt3a conditioned medium; conditions: Homo sapiens, HEK-293T, 6 h, HEK293T, Wnt3a conditioned medium, 6 h, read-out: IC50 (μM), inhibitory activity on the Wnt signaling pathway
Method: HEK293T cells were cultured in DMEM containing 10% fetal bovine serum (Invitrogen) at 37° C., 5% CO2. The cells were passaged every other day. The density was retained at 70˜80% during passage. L cell line (CRL-2647, purchased from the gene bank of ATCC, the US) and the control cell line (CRL-2648, purchased from ATCC, US), which stably secreted mouse Wnt3a protein, were cultured in DMEM containing 50 ug/ml G418 and 10% fetal bovine serum, at 37° C., 5% CO2. When the cells grew to a density of about 70%, the medium was replaced with DMEM containing 10% fetal bovine serum. After continuous culture for 4 days, the culture was collected and centrifuged, and the supernatant was kept so that the Wnt conditioned medium was obtained. After titration assay, the conditioned medium was quick-frozen in liquid nitrogen, and placed at −80° C. for long-term storage, so that the titer was kept unchanged.
The cells were seeded to a 48-well plate at a density of […] cells per well, and transfected 20 h later. The reagents for plasmid transfection were calculated based on the amount in each well of the 48-well plate as following: the total amount of plasmid was 125 ng/well; the plasmid was first added to a serum-free medium (25 μL/well) and mixed well; PLUS reagent (Invitrogen) was then added in an amount of 0.5 μL/well and mixed well, then stood for 15 min; Lipofectamine (Invitrogen) liposome was added in an amount of 0.5 μL/well to serum-free DMEM medium (25 μL/well), and then mixed with the solution containing the plasmid and the PLUS, and stood for 15 min. The cells were cultured in serum-free DMEM medium (100 μL/well), and the final mixture of plasmid, PLUS and Lipofectamine were added to the cells. After incubation for 3 h, the transfection was stopped by the medium containing 10% fetal bovine serum (200 μL/well).
The HEK293T cells used for activity assay of the report gene were transfected by the method as shown in 2). Activity assay of Wnt reporter gene: the amount of plasmid for transfection was 5 ng/well for TOP-flash and 5 ng/well for GFP plasmid as internal standard, with lacZ added to reach a total amount of 125 ng/well. […] After treating for 6 h, Boehringer Mannheim Luci-ferase Assay Kit was used to lyse cells (200 μL/well). 50 μL from each well was pipetted into a 96-well plate. The indensity of GFP protein in the cell lysate was measured by fluorimeter FL600 (BIO-TEK Inc. Winooski, Vt.), and taken as internal standard for cell transfection efficiency. 10 μL substrate of luciferase was then added to each well, and the activity of luciferase was measured by Micro Lumate Plus (Perkin Elmer Inc. Wellesley, Mass.) luminometer. Finally, GFP indensity was used as internal standard to calibrate the activity of luciferase, i.e. the activity of Wnt reporter gene.
Calculation of IC50 (taking the calculation of IC50 of the Wnt signaling pathway for example): background (the activity as measured in the groups treated with a conditioned medium containing DMSO only) was subtracted from the reporter gene activity as measured in the groups treated by Wnt3a conditioned medium with or without the compound to be tested at different concentrations; and the obtained value was defined as the activity of the reporter gene induced by Wnt or the residual activity of the reporter gene after adding the compound to be tested. The residual activity was normalized by the activity induced by Wnt to get the relative residual activity. Then combine with the concentrations of the compound to be tested to plot a linear graph, and a dose-effect curve was fitted based on 4-parameter logistic fit. IC50 of the Wnt signaling pathway is determined as the concentration at which the relative residual activity is 0.5.

[6] = system: HL-60 (human promyelocytic leukemia cells); experiment: MTT inhibition of tumor cell growth, HL-60; conditions: Homo sapiens, HL-60, 48 h
Method: as §1, §2, §3, §4

[7] = Table 2, derivatives having potential Michael reaction acceptor
[8] = Table 6, 7-carbonyl derivatives, read-out: IC50 SW-480, 7-carbonyl derivatives
[9] = Table 7 (second), derivatives modified on 7-hydroxyl of S-3
[10] = Table 4, derivatives obtained by reduction of the lactonic ring
[11] = Table 4, derivatives obtained by reduction of the lactonic ring, read-out: IC50 SW-480
[12] = Table 1, 7-hydroxy derivatives of S-3
[13] = Table 1, 7-hydroxy derivatives of S-3, read-out: IC50 SW-480
[14] = Table 7 (first), alkaloid derivatives

SMILES: C=C1C(=O)[C@]23CC[C@H]1CC2[C@@]12CCC[C@@](C)(COC1=O)C2CC3=O (stereo partly drawn) [Compound 7]
- IC50 [1, 7]: 4.61 µM
- IC50 [2, 7]: 4.72 µM
- IC50 [3, 7]: 3.16 µM
- IC50 ([4]; Table 2, derivatives having potential Michael reaction acceptor, read-out: IC50 SW-480): 3.74 µM
- IC50 [4, 8]: 2.63 µM
- IC50 [5, 9]: 12.1 ± 1.88 µM
- IC50 ([5]; Table 8): 12.1 µM
- IC50 [6, 7]: 4.56 µM

SMILES: C=C1C(=O)C23CC[C@H]1CC2[C@]1(COS(C)(=O)=O)CCC[C@@](C)(COC(=O)N2CCOCC2)C1CC3=O (stereo partly drawn) [Compound 61]
- IC50 [1, 10]: 2.05 µM
- IC50 [2, 10]: 2.18 µM
- IC50 [3, 10]: 2.32 µM
- IC50 [4, 11]: 3.37 µM
- IC50 ([5]; Table 10): 32.3 ± 3.01 µM
- IC50 [6, 10]: 2.7 µM

SMILES: C=C1C(=O)C23CC[C@H]1CC2[C@@]12CCC[C@@](C)(COC1=O)C2C[C@H]3OS(=O)(=O)c1ccccc1 (stereo partly drawn) [Compound 1s]
- IC50 [1, 12]: 4.18 µM
- IC50 [2, 12]: 3.83 µM
- IC50 [3, 12]: 2.69 µM
- IC50 [4, 13]: 2.89 µM
- IC50 [5, 9]: 12.4 ± 1 µM
- IC50 [6, 12]: 3.53 µM

SMILES: C=C1C(=O)C23CC[C@H]1CC2[C@]1(COC(=O)c2cccs2)CCC[C@@](C)(COC(=O)c2cccs2)C1CC3=O (stereo partly drawn) [Compound 64]
- IC50 [1, 10]: 0.67 µM
- IC50 [2, 10]: 0.57 µM
- IC50 [3, 10]: 0.7 µM
- IC50 [4, 11]: 0.59 µM
- IC50 [4, 8]: 0.71 µM
- IC50 ([5]; Table 8): 7.83 ± 0.7 µM
- IC50 [6, 10]: 0.61 µM

SMILES: C=C1C(=O)[C@]23CC[C@H]1CC2[C@@]12CCC[C@@](C)(C(=O)N4CCO[C@H]41)C2C[C@H]3O (stereo partly drawn) [Compound 78]
- IC50 [1, 14]: 1.12 µM
- IC50 [2, 14]: 2.63 µM
- IC50 [3, 14]: 3.09 µM
- IC50 ([4]; Table 7 (first), alkaloid derivatives, read-out: IC50 SW-480): 2.81 µM
- IC50 ([5]; Table 11): 28.7 ± 0.97 µM
- IC50 [6, 14]: 2.73 µM

SMILES: C=CC(=O)O[C@@H]1CC2[C@@]3(C)CCC[C@@]2(C(=O)OC3)C2C[C@@H]3CCC21C(=O)C3=C (stereo partly drawn) [Compound 1g]
- IC50 [1, 12]: 5.85 µM
- IC50 [2, 12]: 10.2 µM
- IC50 [3, 12]: 5.97 µM
- IC50 [4, 13]: 6.42 µM
- IC50 [5, 9]: 30 ± 2.22 µM
- IC50 [6, 12]: 6.86 µM

SMILES: C=C1C(=O)[C@]23CC[C@H]1CC2[C@@]12CCC[C@@](C)(COC1=O)C2C[C@H]3OS(=O)(=O)c1ccc(Cl)cc1 (stereo partly drawn) [Compound 1t]
- IC50 [1, 12]: 3.19 µM
- IC50 [2, 12]: 3.64 µM
- IC50 [3, 12]: 2.94 µM
- IC50 [4, 13]: 1.91 µM
- IC50 [5, 9]: 14.4 ± 2.28 µM
- IC50 [6, 12]: 3.36 µM
